In ChEMBL document CHEMBL2407021, “Unveiling the mode of action of antibacterial labdane diterpenes from Alpinia nigra (Gaertn.) B. L. Burtt seeds” (2013):
In brackets after ≈: the same amount, converted by molar mass. Activity calls are given as the source filed them. The calls are words filed in the database; no cut-off is given here.

Experiments:
[1] = tested on: Escherichia coli; assay: Antibacterial activity against Escherichia coli ATCC 25922 after 18 hrs by microdilution method; assay type: functional; settings: ATCC 25922, 18 h
[2] = tested on: Salmonella paratyphi; assay: Antibacterial activity against Salmonella paratyphi A MTCC 735 after 18 hrs by microdilution method; assay type: functional, Salmonella enterica subsp. enterica serovar Paratyphi A; settings: Salmonella enterica, MTCC 735, 18 h
[3] = tested on: Listeria monocytogenes; assay: Antibacterial activity against Listeria monocytogenes ATCC 19115 after 18 hrs by microdilution method; assay type: functional; settings: ATCC 19115, 18 h
[4] = tested on: Yersinia enterocolitica; assay: Antibacterial activity against Yersinia enterocolitica MTCC 859 after 18 hrs by microdilution method; assay type: functional; settings: MTCC 859, 18 h
[5] = tested on: Escherichia coli; assay: Antibacterial activity against Escherichia coli ATCC 25922 after 24 hrs; assay type: functional; settings: ATCC 25922, 24 h
[6] = tested on: Listeria monocytogenes; assay: Induction of cell damage in Listeria monocytogenes ATCC 19115 assessed as increase in fluorescence intensity at MIC after 12 hrs using propidium iodide staining by flow cytometry analysis; assay type: functional
[7] = tested on: Bacillus cereus; assay: Antibacterial activity against Bacillus cereus ATCC 11778 after 24 hrs; assay type: functional; settings: ATCC 11778, 24 h
[8] = tested on: Escherichia coli; assay: Induction of cell damage in Escherichia coli ATCC 25922 assessed as increase in fluorescence intensity at MIC after 12 hrs using propidium iodide staining by flow cytometry analysis; assay type: functional
[9] = tested on: Staphylococcus aureus; assay: Induction of cell damage in Staphylococcus aureus ATCC 6538 assessed as increase in fluorescence intensity at MIC after 12 hrs using propidium iodide staining by flow cytometry analysis; assay type: functional
[10] = tested on: Bacillus cereus; assay: Induction of cell damage in Bacillus cereus ATCC 11778 assessed as increase in fluorescence intensity at MIC after 12 hrs using propidium iodide staining by flow cytometry analysis; assay type: functional
[11] = tested on: Bacillus cereus; assay: Antibacterial activity against Bacillus cereus ATCC 11778 after 18 hrs by microdilution method; assay type: functional; settings: ATCC 11778, 18 h
[12] = tested on: Staphylococcus aureus; assay: Induction of cell leakage in Staphylococcus aureus ATCC 6538 assessed as release of cellular materials at MIC after 8 to 16 hrs by UV/VIS spectrophotometer analysis; assay type: functional, organism-based
[13] = tested on: Staphylococcus aureus; assay: Antibacterial activity against Staphylococcus aureus ATCC 6538 after 24 hrs; assay type: functional; settings: ATCC 6538, 24 h
[14] = tested on: Yersinia enterocolitica; assay: Antibacterial activity against Yersinia enterocolitica MTCC 859 after 24 hrs; assay type: functional; settings: MTCC 859, 24 h
[15] = tested on: Yersinia enterocolitica; assay: Induction of cell leakage in Yersinia enterocolitica MTCC 859 assessed as release of cellular materials at MIC after 8 to 16 hrs by UV/VIS spectrophotometer analysis; assay type: functional, organism-based
[16] = tested on: Yersinia enterocolitica; assay: Induction of cell damage in Yersinia enterocolitica MTCC 859 assessed as increase in fluorescence intensity at MIC after 12 hrs using propidium iodide staining by flow cytometry analysis; assay type: functional
[17] = tested on: Staphylococcus aureus; assay: Induction of cell lysis in Staphylococcus aureus ATCC 6538 assessed as membrane disintegration and damage of cell wall at MIC by field emission scanning electron microscopy analysis; assay type: functional, organism-based
[18] = tested on: Escherichia coli; assay: Induction of cell damage in enterotoxic Escherichia coli MTCC 723 assessed as increase in fluorescence intensity at MIC after 12 hrs using propidium iodide staining by flow cytometry analysis; assay type: functional
[19] = tested on: Listeria monocytogenes; assay: Antibacterial activity against Listeria monocytogenes ATCC 19115 after 24 hrs; assay type: functional; settings: ATCC 19115, 24 h
[20] = tested on: Escherichia coli; assay: Antibacterial activity against enterotoxic Escherichia coli MTCC 723 after 18 hrs by microdilution method; assay type: functional; settings: MTCC 723, 18 h
[21] = tested on: Salmonella paratyphi; assay: Antibacterial activity against Salmonella paratyphi A MTCC 735 after 24 hrs; assay type: functional, Salmonella enterica subsp. enterica serovar Paratyphi A; settings: Salmonella enterica, MTCC 735, 24 h
[22] = tested on: Escherichia coli; assay: Antibacterial activity against enterotoxic Escherichia coli MTCC 723 after 24 hrs; assay type: functional; settings: MTCC 723, 24 h
[23] = tested on: Yersinia enterocolitica; assay: Induction of cell lysis in Yersinia enterocolitica MTCC 859 assessed as cell membrane damage at MIC by field emission scanning electron microscopy analysis; assay type: functional, organism-based
[24] = tested on: Staphylococcus aureus; assay: Antibacterial activity against Staphylococcus aureus ATCC 6538 after 18 hrs by microdilution method; assay type: functional; settings: ATCC 6538, 18 h
[25] = tested on: Salmonella paratyphi; assay: Induction of cell damage in Salmonella paratyphi A MTCC 735 assessed as increase in fluorescence intensity at MIC after 12 hrs using propidium iodide staining by flow cytometry analysis; assay type: functional, Salmonella enterica subsp. enterica serovar Paratyphi A

Structure (SMILES)	MIC [1] [mg/L]	MIC [2] [mg/L]	MIC [3] [mg/L]	MIC [4] [mg/L]	MBC [5] [mg/L]	RFU [6]	MBC [7] [mg/L]	RFU [8]	RFU [9]	RFU [10]	MIC [11] [mg/L]	Activity [12]	MBC [13] [mg/L]	MBC [14] [mg/L]	Activity [15]	RFU [16]	Activity [17]	RFU [18]	MBC [19] [mg/L]	MIC [20] [mg/L]	further results
C=C1CC[C@H]2C(C)(C)CCC[C@]2(C)[C@H]1C/C=C(/C=O)CC=O	25 (≈ 82.7 µM)	12.5 (≈ 41.3 µM)	25 (≈ 82.7 µM)	12.5 (≈ 41.3 µM)	50 (≈ 165 µM)	70.9	12.5 (≈ 41.3 µM)	146	114	117	12.5 (≈ 41.3 µM)	Active	25 (≈ 82.7 µM)	25 (≈ 82.7 µM)	Active	80.7	Active	139	25 (≈ 82.7 µM)	25 (≈ 82.7 µM)	MBC [21]: 12.5 mg/L (≈ 41.3 µM); MBC [22]: 25 mg/L (≈ 82.7 µM); Activity [23]: Active; MIC [24]: 12.5 mg/L (≈ 41.3 µM); RFU [25]: 78.5
CC1(C)CCC[C@@]2(C)[C@H]1CC[C@@]1(CO1)[C@@H]2C/C=C(/C=O)CC=O [AFRAMODIAL]	12.5 (≈ 39.3 µM)	6.75 (≈ 21.2 µM)	12.5 (≈ 39.3 µM)	3.38 (≈ 10.6 µM)	12.5 (≈ 39.3 µM)	89.9	6.75 (≈ 21.2 µM)	187	119	118	6.75 (≈ 21.2 µM)	Active	6.75 (≈ 21.2 µM)	3.38 (≈ 10.6 µM)	Active	117	Active	153	12.5 (≈ 39.3 µM)	6.75 (≈ 21.2 µM)	MBC [21]: 12.5 mg/L (≈ 39.3 µM); MBC [22]: 6.75 mg/L (≈ 21.2 µM); Activity [23]: Active; MIC [24]: 3.38 mg/L (≈ 10.6 µM); RFU [25]: 87.6
